Measured values: the NIST ThermoML archive (doi:10.1021/je100803e)

Assays:
[1] = for mass density / viscosity: 298.15 K, 101.3 kPa; for mass density / viscosity / vapor or sublimation pressure: Liquid; for viscosity: Capillary tube (Ostwald / Ubbelohde) method; for vapor or sublimation pressure: Ebulliometric method (Recirculating still); for Normal melting temperature: Crystal
[2] = refractive index (Na D-line) (dimensionless); conditions: 298.15 K; 101.33 kPa; Liquid; Standard Abbe refractometry
[3] = xn = mol fraction of the nth substance listed; conditions: 298.15 K, 101 kPa, Liquid; for viscosity: Capillary tube (Ostwald / Ubbelohde) method
[4] = refractive index (Na D-line) (dimensionless); xn = mol fraction of the nth substance listed; conditions: 298.15 K, 101 kPa, Liquid, Standard Abbe refractometry

CC(O)CO (centres undefined) [1,2-propanediol]
Conditions	mass density [kg/m3]	refractive index	viscosity [mPa·s]
[1]	1031.6	–	44.45
[2]	–	1.4313	–

[1]
Conditions	vapor or sublimation pressure [kPa]
378 K	4
398.24 K	10
402.54 K	12
415.13 K	20
425.72 K	30
433.59 K	40
439.9 K	50
445.2 K	60
449.79 K	70
453.84 K	80
457.48 K	90
460.79 K	100

CC(O)CO (centres undefined) [1,2-propanediol] + CC1COC(=O)O1
x1 = 1
Conditions	mass density [kg/m3]	refractive index	viscosity [mPa·s]
[3]	1031.6	–	44.45
[4]	–	1.4313	–

CC1COC(=O)O1 (centres undefined) [4-methyl-1,3-dioxolan-2-one]
Conditions	mass density [kg/m3]	refractive index	viscosity [mPa·s]
[1]	1199.4	–	2.39
[2]	–	1.4198	–

[1]
Conditions	vapor or sublimation pressure [kPa]
407.97 K	4
432.45 K	10
437.77 K	12
453.6 K	20
467.23 K	30
477.53 K	40
485.91 K	50

CC1COC(=O)O1 (centres undefined) [4-methyl-1,3-dioxolan-2-one] + CC(O)CO
Conditions	mass density, [3] [kg/m3]	refractive index, [4]	viscosity, [3] [mPa·s]
x2 = 0	1199.4	1.4198	2.39
x2 = 0.01	–	–	2.534
x2 = 0.05	1190.9	1.4199	2.436
x2 = 0.1	1182.4	1.4199	–
x2 = 0.2	1166.4	1.4207	2.921
x2 = 0.3	1150.2	1.4213	3.55
x2 = 0.4	1134.2	1.4223	4.758
x2 = 0.5	1117.9	1.4235	6.071
x2 = 0.6	1101.6	1.4249	8.461
x2 = 0.7	1085.1	1.4264	11.82
x2 = 0.8	1068	1.4278	17.38
x2 = 0.9	1050.6	1.4294	27.54
x2 = 0.9499	1041.4	1.4305	35.66

CCOC(=O)CCC(=O)OCC [diethyl butanedioate]
Conditions	Normal melting temperature [°C]	mass density [kg/m3]	refractive index	viscosity [mPa·s]
[1]	-21.52	1035.5	–	2.393
[2]	–	–	1.4179	–

[1]
Conditions	vapor or sublimation pressure [kPa]
392.46 K	4
417.39 K	10
423.15 K	12
437.53 K	20
453.15 K	30
462.1 K	40
467.78 K	50

CCOC(=O)CCC(=O)OCC [diethyl butanedioate] + O=C1CCCO1
Conditions	mass density, [3] [kg/m3]	refractive index, [4]	viscosity, [3] [mPa·s]
x2 = 0	1035.5	1.4179	2.393
x2 = 0.05	1037.5	1.4185	2.381
x2 = 0.1	1040	1.419	2.375
x2 = 0.2	1045.3	1.4201	2.356
x2 = 0.2999	1051.1	1.4213	2.318
x2 = 0.4	1057.8	1.4227	2.284
x2 = 0.5	1065.3	1.4242	2.226
x2 = 0.6	1073.8	1.4259	2.153
x2 = 0.7	1083.5	1.4278	2.073
x2 = 0.8	1094.9	1.4299	1.952
x2 = 0.9	1108.4	1.4323	1.817
x2 = 0.95	1116.2	1.4336	1.745

O [water]
Conditions	Normal melting temperature [°C]
[1]	-0.10

O [water] + O=C1CCCO1
x1 = 1
Conditions	refractive index	viscosity [mPa·s]
[3]	–	0.8756
[4]	1.3325	–

O=C1CCCO1 [γ-butyrolactone]
Conditions	Normal melting temperature [°C]	mass density [kg/m3]	refractive index	viscosity [mPa·s]
[1]	-43.72	1124.5	–	1.654
[2]	–	–	1.435	–

[1]
Conditions	vapor or sublimation pressure [kPa]
376.99 K	4
400.58 K	10
405.68 K	12
420.76 K	20
433.66 K	30
443.36 K	40
451.22 K	50
457.88 K	60
463.68 K	70
468.84 K	80
473.49 K	90
477.54 K	100

O=C1CCCO1 [γ-butyrolactone] + CCOC(=O)CCC(=O)OCC
x1 = 1
Conditions	mass density [kg/m3]	refractive index	viscosity [mPa·s]
[3]	1124.5	–	1.654
[4]	–	1.435	–

O=C1CCCO1 [γ-butyrolactone] + O
Conditions	mass density, [3] [kg/m3]	refractive index, [4]	viscosity, [3] [mPa·s]
x2 = 0	1124.5	1.435	1.654
x2 = 0.05	1123	1.4337	1.621
x2 = 0.1002	1121.5	1.4325	1.6
x2 = 0.2	1118.2	1.4295	1.606
x2 = 0.3	1115.1	1.4265	1.645
x2 = 0.4	1110.9	1.4226	1.706
x2 = 0.5	1105.9	1.4175	1.766
x2 = 0.6	1098.8	1.4116	1.8
x2 = 0.7	1088.6	1.4017	1.787
x2 = 0.8	1073.2	1.3888	1.668
x2 = 0.9	1047.1	1.3684	1.385
x2 = 0.95	1026.6	1.3531	1.16
